Results taken from patent US5767269A, “Processes for the preparation of low-affinity, low molecular weight heparins useful as antithrombotics” (Hamilton Civic Hospitals Research Development Inc., priority 1996, dated 1998).

Experiments:
surface-bound thrombin = assay: Extracorporeal recirculation circuit: clotting of the filter in recalcified human whole blood; settings: concentrations which prolong the thrombin clotting time to over 500 seconds (10 to 20 U/ml)
Method: The circuit consists of Tygon tubing (3/16"×1/16") connected to a 40 micron transfusion filter (Pall SQ40S). The system includes 3-way stopcocks for blood sampling. A surgical pressure transducer connected to a pressure recorder (Hewlett-Packard) is connected in line with the filter so that clotting of the filter causes a steady increase in pressure. Citrated whole blood taken from normal, healthy volunteers is used. The circuit is filled with 50 ml of whole blood placed in a reservoir and kept in a waterbath maintained at 37° C. The anticoagulant to be tested is added to the circuit, clotting is initiated by recalcification (0.8 ml of 1.0M CaCl2), and the blood is recirculated at a constant flow rate through the thrombogenic surface using a roller head pump (Cole-Parmer MFLX modular drive with a large F/6 roll head cartridge). Thrombosis of the filter is monitored by a change in pressure in a gauge inserted into the circuit, proximal to the filter. […]
The inactivation of surface-bound thrombin and fluid-phase thrombin can be measured simultaneously using this system. More particularly, inactivation of surface-bound thrombin is quantified by recording the delay in clotting of the circuit. […] Inactivation of fluid phase thrombin is quantified by recording the thrombin clotting time of plasma prepared from blood removed from the circuit just before recalcification.

fluid-phase thrombin = assay: Thrombin clotting time of plasma from blood of the extracorporeal circuit; assay type: biochemical, human
Text: The inactivation of surface-bound thrombin and fluid-phase thrombin can be measured simultaneously using this system. More particularly, inactivation of surface-bound thrombin is quantified by recording the delay in clotting of the circuit. This delay is contributed to, albeit to a lesser extent, by the inactivating effect of the anticoagulant on fluid phase thrombin, whose generation is potentiated by the clot-bound thrombin. Inactivation of fluid phase thrombin is quantified by recording the thrombin clotting time of plasma prepared from blood removed from the circuit just before recalcification.

Substance: Hirudin
- prevention of thrombosis in the circuit compared with LA-LMWH (surface-bound thrombin): much less effective at preventing thrombosis in the circuit
- TCT (fluid-phase thrombin; 10 U/mL (Table 3)): > 500 s
- TCT (fluid-phase thrombin; 20 U/ml (Table 3)): > 500 s
